Test results as given in ChEMBL document CHEMBL1149560, “Discovery of a potent CDK2 inhibitor with a novel binding mode, using virtual screening and initial, structure-guided lead scoping” (Bioorg Med Chem Lett, 2007).

Assays:
[1] = molecular target: Cyclin-dependent kinase 2 (Homo sapiens, UniProt P24941); assay: Inhibition of CDK2
HCT-116 = assay: Antiproliferative activity against HCT116 cells by SRB assay after 72 hrs; type: functional; conditions: Homo sapiens, HCT-116, 72 h
[2] = molecular target: Glycogen synthase kinase-3 beta (Homo sapiens, UniProt P49841); assay: Inhibition of GSK3-beta
Glycogen synthase kinase-3 beta, sequence (P49841 whole entry): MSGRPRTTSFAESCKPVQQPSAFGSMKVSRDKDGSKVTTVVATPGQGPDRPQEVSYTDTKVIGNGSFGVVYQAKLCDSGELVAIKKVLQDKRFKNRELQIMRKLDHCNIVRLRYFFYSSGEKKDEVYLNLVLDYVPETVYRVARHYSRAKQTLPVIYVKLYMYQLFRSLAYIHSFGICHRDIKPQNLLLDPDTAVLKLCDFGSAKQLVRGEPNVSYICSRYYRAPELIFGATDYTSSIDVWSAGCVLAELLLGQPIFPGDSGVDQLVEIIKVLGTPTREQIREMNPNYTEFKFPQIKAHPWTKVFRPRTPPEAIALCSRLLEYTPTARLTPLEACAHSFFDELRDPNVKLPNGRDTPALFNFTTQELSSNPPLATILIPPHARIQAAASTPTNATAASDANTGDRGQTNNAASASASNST

[3] = molecular target: T1, Serine/threonine-protein kinase Chk1 (Homo sapiens) (UniProt O14757); assay: Inhibition of Chk1 at 50 uM
T1 sequence (whole entry): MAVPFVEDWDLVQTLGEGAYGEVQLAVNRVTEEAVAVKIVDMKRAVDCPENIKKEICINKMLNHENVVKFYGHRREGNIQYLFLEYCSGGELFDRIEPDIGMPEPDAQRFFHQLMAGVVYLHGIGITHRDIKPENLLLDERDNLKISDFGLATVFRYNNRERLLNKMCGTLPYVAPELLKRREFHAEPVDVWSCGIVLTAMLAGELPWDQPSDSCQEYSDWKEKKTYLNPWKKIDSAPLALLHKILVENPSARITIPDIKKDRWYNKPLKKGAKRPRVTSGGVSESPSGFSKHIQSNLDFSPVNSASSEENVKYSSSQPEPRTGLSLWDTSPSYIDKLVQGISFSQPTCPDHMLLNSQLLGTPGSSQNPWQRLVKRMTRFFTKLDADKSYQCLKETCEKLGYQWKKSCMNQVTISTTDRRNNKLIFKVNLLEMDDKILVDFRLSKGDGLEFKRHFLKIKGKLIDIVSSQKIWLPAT

[4] = molecular target: RAC-alpha serine/threonine-protein kinase (Homo sapiens) (UniProt P31749); assay: Inhibition of AKT at 10 uM
RAC-alpha serine/threonine-protein kinase (Homo sapiens), sequence (P31749 whole entry): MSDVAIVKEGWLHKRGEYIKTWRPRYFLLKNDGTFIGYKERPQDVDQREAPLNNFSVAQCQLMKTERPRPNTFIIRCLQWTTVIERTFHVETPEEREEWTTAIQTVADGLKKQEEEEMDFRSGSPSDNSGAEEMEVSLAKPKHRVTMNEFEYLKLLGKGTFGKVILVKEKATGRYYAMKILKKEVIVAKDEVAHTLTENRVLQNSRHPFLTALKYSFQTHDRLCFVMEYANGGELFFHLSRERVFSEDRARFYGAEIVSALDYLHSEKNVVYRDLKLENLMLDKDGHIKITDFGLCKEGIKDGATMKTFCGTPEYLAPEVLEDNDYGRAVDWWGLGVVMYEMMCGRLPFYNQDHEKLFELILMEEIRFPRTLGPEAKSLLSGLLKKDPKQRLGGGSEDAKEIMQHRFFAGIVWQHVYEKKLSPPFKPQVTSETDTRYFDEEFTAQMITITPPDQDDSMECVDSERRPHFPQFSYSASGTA

[5] = Inhibition of PKA; parameters: species or system Homo sapiens

## N=C1NC(=O)/C(=C/c2ccc(-c3ccc(C(N)=O)cc3)o2)S1
[1]
  IC50: 9.3 µM
HCT-116
  GI50: > 80 µM

## CN(C)CCNS(=O)(=O)c1ccc(-c2ccc(/C=C3\SC(=N)NC3=O)o2)cc1
[1]
  IC50: 0.57 µM
[2]
  IC50: 0.51 µM
HCT-116
  GI50: > 80 µM

## CNS(=O)(=O)c1ccc(-c2ccc(/C=C3\SC(=N)NC3=O)o2)cc1
[2]
  IC50: 0.08 µM
HCT-116
  GI50: > 80 µM

## N=C1NC(=O)/C(=C/c2ccc(-c3ccc(S(=O)(=O)N4CCOCC4)cc3)o2)S1
[1]
  IC50: 150 µM

## C/C(=C1/SC(=N)NC1=O)c1ccc(-c2ccc(S(N)(=O)=O)cc2)o1
[2]
  IC50: 0.43 µM
HCT-116
  GI50: > 80 µM

## N=C1NC(=O)/C(=C/c2ccc(-c3ccccc3[N+](=O)[O-])o2)S1
[1]
  IC50: 19 µM
HCT-116
  GI50: > 80 µM

## N=C1NC(=O)/C(=C/c2ccc(-c3ccc(S(=O)(=O)N4CCNCC4)cc3)o2)S1
[1]
  IC50: 2.9 µM
HCT-116
  GI50: > 80 µM

## N=C1NC(=O)/C(=C/c2ccc(-c3ccc(C(=O)O)cc3)o2)S1
HCT-116
  GI50: > 80 µM

## N=C1NC(=O)/C(=C/c2ccc(-c3ccc(S(N)(=O)=O)c(C(F)(F)F)c3)o2)S1
[2]
  IC50: 0.002 µM
HCT-116
  GI50: > 80 µM

## N=C1NC(=O)/C(=C/c2ccc(-c3ccc(S(N)(=O)=O)cc3)o2)S1
[3]
  inhibition: 44%
[2]
  IC50: 0.25 µM
HCT-116
  GI50: > 80 µM
[4]
  inhibition: 54%
[5]
  IC50: 77 µM

## NS(=O)(=O)c1ccc(-c2ccc(/C=C3\SC(=O)NC3=O)o2)cc1
HCT-116
  GI50: > 80 µM

## N=C1NC(=O)/C(=C/c2ccc(-c3ccc(S(N)(=O)=O)c(Cl)c3)o2)S1
[1]
  IC50: 0.57 µM
[2]
  IC50: 0.014 µM
HCT-116
  GI50: > 80 µM
